pIC50: −log10 of the molar value. The source made the active and inactive calls. The calls are words filed in the database; no cut-off is given here.
Tests used:
HT-29 = assay: Inhibition of cell proliferation in human HT-29 cells upto 10 umol/L incubated for 72 hrs by DAPI staining based analysis; format: functional; settings: dose <= 10.0 µmol/L
[1] = biological target: Tyrosine-protein kinase JAK3 (Homo sapiens) (UniProt P52333); assay: Inhibition of JAK3 (unknown origin) at 1 uM in presence of ATP relative to control; values are per cent of control
Chain of Tyrosine-protein kinase JAK3 (Homo sapiens) (P52333 whole entry): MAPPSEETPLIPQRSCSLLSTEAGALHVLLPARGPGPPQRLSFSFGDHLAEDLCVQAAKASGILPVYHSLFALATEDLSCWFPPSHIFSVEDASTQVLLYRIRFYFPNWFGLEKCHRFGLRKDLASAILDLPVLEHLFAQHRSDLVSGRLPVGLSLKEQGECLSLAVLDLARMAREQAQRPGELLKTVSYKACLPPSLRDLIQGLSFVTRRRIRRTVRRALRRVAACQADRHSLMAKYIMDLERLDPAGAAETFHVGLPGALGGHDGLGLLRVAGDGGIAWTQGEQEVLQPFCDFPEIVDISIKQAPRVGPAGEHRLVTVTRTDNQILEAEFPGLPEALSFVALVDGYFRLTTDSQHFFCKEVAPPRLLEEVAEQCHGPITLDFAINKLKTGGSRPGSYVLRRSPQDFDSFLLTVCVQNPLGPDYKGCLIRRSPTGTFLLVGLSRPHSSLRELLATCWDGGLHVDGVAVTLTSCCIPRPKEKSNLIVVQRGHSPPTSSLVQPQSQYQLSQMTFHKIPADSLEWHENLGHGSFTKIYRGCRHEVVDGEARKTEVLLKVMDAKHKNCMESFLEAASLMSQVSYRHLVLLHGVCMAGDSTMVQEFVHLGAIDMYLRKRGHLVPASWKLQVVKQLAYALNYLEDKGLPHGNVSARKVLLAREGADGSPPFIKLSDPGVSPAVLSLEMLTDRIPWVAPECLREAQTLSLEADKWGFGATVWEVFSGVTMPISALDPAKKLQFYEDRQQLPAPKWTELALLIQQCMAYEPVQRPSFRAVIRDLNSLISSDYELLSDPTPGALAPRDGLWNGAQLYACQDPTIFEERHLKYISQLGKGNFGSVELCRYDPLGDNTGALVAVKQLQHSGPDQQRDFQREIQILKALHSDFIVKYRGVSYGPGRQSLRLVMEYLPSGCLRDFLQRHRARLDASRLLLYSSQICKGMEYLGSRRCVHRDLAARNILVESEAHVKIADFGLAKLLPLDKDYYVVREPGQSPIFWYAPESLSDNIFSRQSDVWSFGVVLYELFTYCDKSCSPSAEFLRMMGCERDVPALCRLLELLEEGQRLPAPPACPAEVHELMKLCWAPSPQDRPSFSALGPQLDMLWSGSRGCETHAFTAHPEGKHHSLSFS

MDA-MB-468 = assay: Inhibition of cell proliferation in human MDA-MB-468 cells upto 10 umol/L incubated for 72 hrs by DAPI staining based analysis; format: functional; settings: dose <= 10.0 µmol/L
[2] = biological target: Serine/threonine-protein kinase WNK2 (Homo sapiens) (UniProt Q9Y3S1); assay: Inhibition of WNK2 (unknown origin) at 1 uM in presence of ATP relative to control; values are per cent of control
[3] = biological target: Serine/threonine-protein kinase pim-2 (Homo sapiens) (UniProt Q9P1W9); assay: Inhibition of Pim-2 (unknown origin) at 1 uM in presence of ATP relative to control; values are per cent of control
Chain of Serine/threonine-protein kinase pim-2 (Homo sapiens) (Q9P1W9 whole entry, looked up): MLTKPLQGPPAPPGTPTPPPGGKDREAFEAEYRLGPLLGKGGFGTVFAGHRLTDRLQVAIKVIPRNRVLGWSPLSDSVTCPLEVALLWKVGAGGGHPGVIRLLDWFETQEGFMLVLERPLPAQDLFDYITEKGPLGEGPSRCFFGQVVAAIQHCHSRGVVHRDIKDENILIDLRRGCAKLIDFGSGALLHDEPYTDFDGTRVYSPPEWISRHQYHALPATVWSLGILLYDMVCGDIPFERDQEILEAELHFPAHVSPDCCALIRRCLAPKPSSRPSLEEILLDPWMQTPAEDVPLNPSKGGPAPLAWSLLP

[4] = AUC in adult patient with recurrent LMNA-NTRK1 rearranged colorectal cancer at 100 mg administered twice a day as powder-in-capsule or liquid formulation for 15 day by LC-MS/MS analysis; format: ADME; settings: human, in vivo, po
[5] = biological target: Myosin light chain kinase, smooth muscle (Homo sapiens) (UniProt Q15746); assay: Inhibition of MYLK (unknown origin) at 1 uM in presence of ATP relative to control; values are per cent of control
[6] = Cmax in adult patient with recurrent LMNA-NTRK1 rearranged colorectal cancer at 100 mg administered twice a day as powder-in-capsule or liquid formulation for 15 days by LC-MS/MS analysis; format: ADME; settings: human, in vivo, po, time 15 day
[7] = AUC in pediatric patient with recurrent ETV6-NTRK3-rearranged infantile fibrosarcoma at 20 mg administered twice a day as liquid formulation for 1 day by LC-MS/MS analysis; format: ADME; settings: human, in vivo
MIA PaCa-2 = assay: Inhibition of cell proliferation in human MIA PaCa-2 cells upto 10 umol/L incubated for 72 hrs by DAPI staining based analysis; format: functional; settings: dose <= 10.0 µmol/L
NCI-H520 = assay: Inhibition of cell proliferation in human NCI-H520 cells upto 10 umol/L incubated for 72 hrs by DAPI staining based analysis; format: functional; settings: dose <= 10.0 µmol/L
[8] = AUC in pediatric patient with recurrent ETV6-NTRK3-rearranged infantile fibrosarcoma at 60 mg administered twice a day as liquid formulation for 8 day by LC-MS/MS analysis; format: ADME; settings: human, in vivo
[9] = Cmin in pediatric patient with recurrent ETV6-NTRK3-rearranged infantile fibrosarcoma at 60 mg administered twice a day as liquid formulation for 8 day and measured 12 hrs post dose by LC-MS/MS analysis; format: ADME; settings: human, in vivo, read-out: Cmin
[10] = biological target: Serine/threonine-protein kinase PAK 2 (Homo sapiens) (UniProt Q13177); assay: Inhibition of PAK2 (unknown origin) at 1 uM in presence of ATP relative to control; values are per cent of control
[11] = biological target: Proto-oncogene tyrosine-protein kinase Src (Homo sapiens) (UniProt P12931); assay: Inhibition of SrC (unknown origin) at 1 uM in presence of ATP relative to control; values are per cent of control
Chain of Proto-oncogene tyrosine-protein kinase Src (Homo sapiens) (P12931 2-536 limits assumed): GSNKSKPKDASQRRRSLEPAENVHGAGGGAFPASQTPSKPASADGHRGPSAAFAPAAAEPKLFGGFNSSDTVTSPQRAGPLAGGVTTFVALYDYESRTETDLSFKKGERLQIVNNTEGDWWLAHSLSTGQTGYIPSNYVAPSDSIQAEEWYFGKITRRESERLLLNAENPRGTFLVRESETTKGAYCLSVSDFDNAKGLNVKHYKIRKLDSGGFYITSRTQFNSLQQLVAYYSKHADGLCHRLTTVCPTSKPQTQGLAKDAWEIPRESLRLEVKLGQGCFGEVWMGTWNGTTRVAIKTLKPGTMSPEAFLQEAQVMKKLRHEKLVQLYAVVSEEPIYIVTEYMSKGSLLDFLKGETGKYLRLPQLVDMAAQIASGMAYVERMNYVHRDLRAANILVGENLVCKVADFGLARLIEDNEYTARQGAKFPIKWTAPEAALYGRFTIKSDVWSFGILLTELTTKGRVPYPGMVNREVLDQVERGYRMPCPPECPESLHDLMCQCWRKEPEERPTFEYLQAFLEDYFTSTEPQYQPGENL

Homo sapiens [12] = organism: Homo sapiens; assay: Inhibition of p70S6K (unknown origin) at 1 uM in presence of ATP relative to control; values are per cent of control
Homo sapiens [13] = organism: Homo sapiens; assay: Inhibition of CDK2/cyclinA (unknown origin) at 1 uM in presence of ATP relative to control; values are per cent of control
[14] = biological target: Ephrin type-A receptor 5 (Homo sapiens) (UniProt P54756); assay: Inhibition of EphA5 (unknown origin) at 1 uM in presence of ATP relative to control; values are per cent of control
Chain of Ephrin type-A receptor 5 (Homo sapiens) (P54756 whole entry): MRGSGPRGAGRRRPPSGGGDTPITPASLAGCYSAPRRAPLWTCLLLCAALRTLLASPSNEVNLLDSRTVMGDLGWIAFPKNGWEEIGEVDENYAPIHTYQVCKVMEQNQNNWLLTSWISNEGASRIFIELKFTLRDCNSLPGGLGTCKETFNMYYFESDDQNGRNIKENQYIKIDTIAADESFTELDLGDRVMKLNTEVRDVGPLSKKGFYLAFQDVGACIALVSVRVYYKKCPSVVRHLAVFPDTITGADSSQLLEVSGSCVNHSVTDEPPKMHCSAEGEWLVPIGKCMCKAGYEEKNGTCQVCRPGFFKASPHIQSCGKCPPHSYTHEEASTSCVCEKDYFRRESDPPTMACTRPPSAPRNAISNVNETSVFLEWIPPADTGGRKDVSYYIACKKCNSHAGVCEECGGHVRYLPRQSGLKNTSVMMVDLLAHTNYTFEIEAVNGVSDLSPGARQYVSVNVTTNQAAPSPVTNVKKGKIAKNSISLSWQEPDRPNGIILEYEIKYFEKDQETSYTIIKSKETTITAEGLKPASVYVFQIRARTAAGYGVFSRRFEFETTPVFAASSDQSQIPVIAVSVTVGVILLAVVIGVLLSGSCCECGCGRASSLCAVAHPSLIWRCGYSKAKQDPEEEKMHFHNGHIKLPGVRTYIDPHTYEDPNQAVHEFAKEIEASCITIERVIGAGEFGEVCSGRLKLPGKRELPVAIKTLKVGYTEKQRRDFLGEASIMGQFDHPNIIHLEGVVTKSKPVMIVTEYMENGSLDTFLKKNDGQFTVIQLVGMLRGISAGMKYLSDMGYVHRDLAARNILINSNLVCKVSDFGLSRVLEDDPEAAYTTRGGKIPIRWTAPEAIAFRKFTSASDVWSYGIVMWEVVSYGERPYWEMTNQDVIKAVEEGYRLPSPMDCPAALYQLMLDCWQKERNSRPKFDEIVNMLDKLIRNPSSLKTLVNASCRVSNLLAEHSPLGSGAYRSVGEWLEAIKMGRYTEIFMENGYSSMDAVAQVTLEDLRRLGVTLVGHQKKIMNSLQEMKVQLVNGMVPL

[15] = Cmax in adult patient with recurrent LMNA-NTRK1 rearranged colorectal cancer at 50 mg administered twice a day as powder-in-capsule or liquid formulation for 1 day by LC-MS/MS analysis; format: ADME; settings: human, in vivo, po
[16] = biological target: Receptor-type tyrosine-protein kinase FLT3 (Homo sapiens) (UniProt P36888); assay: Inhibition of FLt3 (unknown origin) at 1 uM in presence of ATP relative to control; values are per cent of control
Chain of Receptor-type tyrosine-protein kinase FLT3 (Homo sapiens) (P36888 whole entry): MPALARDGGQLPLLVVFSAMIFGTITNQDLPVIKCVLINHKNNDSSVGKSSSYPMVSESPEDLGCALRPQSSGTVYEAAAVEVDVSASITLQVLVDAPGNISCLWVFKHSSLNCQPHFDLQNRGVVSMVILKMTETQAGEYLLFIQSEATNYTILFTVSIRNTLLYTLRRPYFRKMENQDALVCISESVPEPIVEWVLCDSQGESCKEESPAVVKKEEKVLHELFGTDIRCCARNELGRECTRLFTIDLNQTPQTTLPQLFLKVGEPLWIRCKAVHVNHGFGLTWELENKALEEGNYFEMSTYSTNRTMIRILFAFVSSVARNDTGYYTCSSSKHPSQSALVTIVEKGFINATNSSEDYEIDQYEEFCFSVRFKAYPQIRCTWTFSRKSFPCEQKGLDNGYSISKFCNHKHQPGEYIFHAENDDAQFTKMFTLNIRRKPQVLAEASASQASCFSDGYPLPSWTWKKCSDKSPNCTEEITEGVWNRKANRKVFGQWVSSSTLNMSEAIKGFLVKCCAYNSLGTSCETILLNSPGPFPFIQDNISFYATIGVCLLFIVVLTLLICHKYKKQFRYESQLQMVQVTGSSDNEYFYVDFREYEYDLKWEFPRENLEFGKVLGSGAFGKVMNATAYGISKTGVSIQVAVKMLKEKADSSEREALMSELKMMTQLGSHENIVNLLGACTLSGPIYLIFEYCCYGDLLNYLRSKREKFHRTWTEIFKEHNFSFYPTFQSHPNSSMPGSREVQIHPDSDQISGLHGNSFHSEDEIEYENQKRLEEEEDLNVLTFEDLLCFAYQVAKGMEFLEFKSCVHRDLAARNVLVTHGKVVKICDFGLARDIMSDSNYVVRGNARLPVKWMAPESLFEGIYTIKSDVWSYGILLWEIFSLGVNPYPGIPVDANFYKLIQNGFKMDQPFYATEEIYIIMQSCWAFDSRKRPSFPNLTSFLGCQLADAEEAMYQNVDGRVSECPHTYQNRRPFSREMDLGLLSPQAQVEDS

[17] = biological target: Protein kinase C epsilon type (Homo sapiens) (UniProt Q02156); assay: Inhibition of PKCepsilon (unknown origin) at 1 uM in presence of ATP relative to control; values are per cent of control
Chain of Protein kinase C epsilon type (Homo sapiens) (Q02156 whole entry): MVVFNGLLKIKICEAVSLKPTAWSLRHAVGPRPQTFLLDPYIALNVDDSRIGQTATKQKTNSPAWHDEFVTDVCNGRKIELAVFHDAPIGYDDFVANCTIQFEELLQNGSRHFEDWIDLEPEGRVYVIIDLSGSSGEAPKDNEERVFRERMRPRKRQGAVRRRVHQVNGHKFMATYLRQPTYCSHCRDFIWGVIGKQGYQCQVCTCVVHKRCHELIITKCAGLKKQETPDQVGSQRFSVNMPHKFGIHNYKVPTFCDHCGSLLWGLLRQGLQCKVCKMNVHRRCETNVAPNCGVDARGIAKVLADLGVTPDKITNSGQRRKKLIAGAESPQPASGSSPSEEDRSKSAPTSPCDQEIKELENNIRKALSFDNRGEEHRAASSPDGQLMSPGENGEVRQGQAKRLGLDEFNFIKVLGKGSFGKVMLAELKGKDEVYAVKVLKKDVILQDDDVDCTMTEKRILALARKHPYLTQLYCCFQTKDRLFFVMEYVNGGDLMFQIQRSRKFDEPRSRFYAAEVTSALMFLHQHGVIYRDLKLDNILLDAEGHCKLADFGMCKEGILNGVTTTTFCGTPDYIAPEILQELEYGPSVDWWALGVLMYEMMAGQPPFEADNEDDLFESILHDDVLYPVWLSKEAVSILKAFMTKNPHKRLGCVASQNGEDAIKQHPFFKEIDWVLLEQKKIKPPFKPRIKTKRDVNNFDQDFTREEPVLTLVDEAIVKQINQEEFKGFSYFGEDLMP

[18] = biological target: Serine/threonine-protein kinase MRCK beta (Homo sapiens) (UniProt Q9Y5S2); assay: Inhibition of MRCKbeta (unknown origin) at 1 uM in presence of ATP relative to control; values are per cent of control
[19] = Clearance in dog at 1 mg/kg, iv administered as 20% hydroxypropyl-beta-cyclodextrin formulation by LC-MS analysis; format: ADME, organism-based, Canis lupus familiaris; settings: in vivo
COR-L105 = assay: Inhibition of cell proliferation in human COR-L105 cells upto 10 umol/L incubated for 72 hrs by DAPI staining based analysis; format: functional; settings: dose <= 10.0 µmol/L
[20] = Toxicity in nu/nu NCr mouse xenografted with human KM12 cells harboring TPM3-TRKA fusion protein assessed as body weight loss at 30 to 300 mg/kg, po administered twice daily for 11 days relative to control; format: organism-based; settings: in vivo, 264 h, dose 30-300 mg/kg, time 11 day
[21] = Clearance in rat at 1 mg/kg, iv administered as 20% hydroxypropyl-beta-cyclodextrin formulation by LC-MS analysis; format: ADME, organism-based; settings: in vivo
RT112/84 = assay: Inhibition of cell proliferation in human RT112/84 cells upto 10 umol/L incubated for 72 hrs by DAPI staining based analysis; format: functional; settings: dose <= 10.0 µmol/L
[22] = Inhibition of human extracellular domain deleted TRKA G667S mutant expressed in mouse NIH3T3 cells assessed as reduction in TRKA phosphorylation incubated for 1 hrs by ELISA; format: cell-based; settings: NIH3T3, 1 h
[23] = biological target: Serine/threonine-protein kinase Nek6 (Homo sapiens) (UniProt Q9HC98); assay: Inhibition of NEK6 (unknown origin) at 1 uM in presence of ATP relative to control; values are per cent of control
Chain of Serine/threonine-protein kinase Nek6 (Homo sapiens) (Q9HC98 whole entry): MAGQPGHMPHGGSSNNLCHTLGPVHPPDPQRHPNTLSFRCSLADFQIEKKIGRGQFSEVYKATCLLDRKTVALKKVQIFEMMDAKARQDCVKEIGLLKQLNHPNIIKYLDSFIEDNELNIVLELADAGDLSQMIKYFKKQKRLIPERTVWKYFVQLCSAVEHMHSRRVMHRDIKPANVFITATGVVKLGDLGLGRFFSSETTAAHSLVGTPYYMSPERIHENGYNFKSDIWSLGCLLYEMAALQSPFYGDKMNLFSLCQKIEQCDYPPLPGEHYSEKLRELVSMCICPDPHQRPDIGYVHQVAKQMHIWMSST

Homo sapiens [24] = organism: Homo sapiens; assay: Inhibition of CK1_y (unknown origin) at 1 uM in presence of ATP relative to control; values are per cent of control
[25] = Inhibition of N-terminal 6His-tagged TRKC G696A mutant (506 to 829 residues) (unknown origin) expressed in Escherichia coli incubated for 60 mins by [gamma-33P]-ATP based TopCount NXT liquid scintillation assay; set-up: species or system Homo sapiens

C[C@@H]1CCc2ncc(F)cc2[C@H]2CCCN2c2ccn3ncc(c3n2)C(=O)N1 [SELITRECTINIB]
inhibition (HT-29): inactive | residual activity [1]: 103% | inhibition (MDA-MB-468): inactive | residual activity [2]: 128% | residual activity [3]: 120% | AUC at 360 h [4]: 2620 ng·h/mL | residual activity [5]: 109% | Cmax [6]: 673 ng/mL | AUC at 24 h [7]: 615 ng·h/mL | inhibition (MIA PaCa-2): inactive | inhibition (NCI-H520): inactive | AUC at 192 h [8]: 2010 ng·h/mL | concentration at 204 h [9]: < 1 ng/mL | residual activity [10]: 108% | residual activity [11]: 102% | residual activity (Homo sapiens [12]): 117% | residual activity (Homo sapiens [13]): 109% | residual activity [14]: 90% | Cmax [15]: 350 ng/mL | residual activity [16]: 85.5% | residual activity [17]: 102% | residual activity [18]: 128% | clearance [19]: 12.8 mL/min/kg | inhibition (COR-L105): inactive | Activity [20]: < 5% | clearance [21]: 5.83 mL/min/kg | inhibition (RT112/84): inactive | pIC50 [22]: 7.60 | residual activity [23]: 116% | residual activity (Homo sapiens [24]): 114% | pIC50 [25]: > 8.60

— ChEMBL document CHEMBL5678816, “A Next-Generation TRK Kinase Inhibitor Overcomes Acquired Resistance to Prior TRK Kinase Inhibition in Patients with TRK Fusion-Positive Solid Tumors” (Cancer Discov, 2017)
